The values below come from patent US20240092779A1, “USP1 INHIBITORS AND USES THEREOF” (Zentaur Therapeutics USA Inc., priority 2022, published 2024).

SMILES strings stand for the structures.

One experiment relates to MDA-MB-436 cells. The experiment in a line: CTG Protocol (MDA-MB-436 GI50), antiproliferative activity. The settings on record: MDA-MB-436 cells (BRCA1 mutation), 7-day incubation, CellTiter-Glo. The class given is cell-based, human. The protocol:
CTG Protocol (MDA-MB-436 GI50)
Antiproliferative activity of USP1 inhibitors was determined using breast cancer cell line MDA-MB-436 that harbors BRCA1 mutation. MDA-MB-436 cells (ATCC, HTB-130) was seeded with a seeding density of 1000 cells per well and 95 μL DMEM medium (Gibco, 10566016) into 96-well cell plates (Corning, 3610), and incubated overnight at 37° C. and 5% CO2. Compounds were solubilized in DMSO (Solarbio, D8371) as 10 mM stock solution, and then series diluted (3 folds) with DMSO for 9-point dose-response testing. The resulted series dilutions were then jump-diluted 50-fold by cell culture medium to afford the 20×stock solutions (containing 2% DMSO). Treatment was initiated by adding 5 μL of 20×stock solution to the assay plate and incubated at 37° C. and 5% CO2. At the end of 7-day incubation, cell assay plates were removed from incubation and equilibrated to room temperature (20 min). Then 100 μL of CellTiter-Glo (Promega, G9243) reagent, prepared per manufacturer's protocol, was added to each well, and the resulted plates were centrifuged 1,000 rpm for 1 minute, incubated at room temperature in the dark for 20 minutes, sealed with Perkin Elmer sticky film, and the luminescence signal read by Envision (Perkin Elmer).
Data analysis • a) % Inhibition was calculated using following equation: […]
X: compound concentration; Y: % Inhibition
(§1) Certain compounds were tested in the assays.
(In ATP-based viability assays light output follows the ATP content of the culture.)

A further experiment has as its system HCC1806 Ub-PCNA (USP1). The experiment in a line: USP1 Western Blot Protocol (HCC1806 Ub-PCNA). The format is cell-based. The settings on record: HCC1806 cells, 4 hours.
Excerpt: USP1 Western Blot Protocol (HCC1806 Ub-PCNA)
USP1 is a deubiquitinase that catalyze the hydrolysis of iso-peptide bond between ubiquitin and the substrate proteins. Inhibition of USP1 activity results in accumulation of mono-ubiquitinated substrate such as Ub-PCNA. A cell assay was set up to determine the cellular potency of USP1 compounds by monitoring the accumulation of Ub-PCNA. The signal intensity was detected by a specific Ub-PCNA antibody through Western-blot analysis.
The assay was initiated by seeding HCC1806 cells (ATCC, CRL-2335) into 6-well plates (Corning, 3516), with a seeding density of 3×10^5 cells per well and 2 mL RPMI 1640 culture medium (Gibco, 11875119). The plates were incubated overnight at 37° C. and 5% CO2. Compounds, solubilized in DMSO (Solarbio, D8371) as 1 mM stock solution, were diluted in 4-fold steps for 5-cencentration point dose response plus a no-compound DMSO control. Diluted compounds (2 μL) were transferred into assay wells (with a final DMSO concentration of −0.1%) and the resulted assay plates incubated at 37° C. and 5% CO2 for 4 hours. After aspiration of culture medium, 100 μL of 4° C. RIPA lysis buffer (Boston BioProducts, BP-115D) supplemented with vendor recommended concentrations of protease (Roche, 4693116001) and phosphatase (Roche, 4906837001) inhibitor, was added to each well and incubated for 10 minutes on the ice. Cells were scrapped loose from the bottom of well with a scraper (Corning, 3008), transferred into a 600 μL EP tube, sonicated using Ultrasound (Qsonica, Q800R3, with 30% energy, 5-second pulse on/off cycles at 4° C., for total 2 minutes), centrifuged 13,000 rpm for 15 minutes at 4° C., and then the supernatant transferred to a new 600 μL EP tube. The total protein concentration was determined using BCA kit following vendor recommended protocol (Solarbio, PC0020-500). Loading samples were prepared by diluting the total protein concentration to 1.5 μg/μL with 5 X NuPAGE SDS loading buffer (Beyotime, P0015L) and RIPA lysis buffer, and boiling at 100° C. for 5 minutes.
15 μg protein from each sample was loaded onto NuPAGE® Novex 4-12% Bis-Tris Midi Gel, 26 W (Invitrogen, WG1403BOX) and electrophoresis was run at 80 V for 30 minutes and 120 V till the end using 1x NuPAGE® MOPS SDS Running Buffer (Novex, NP0001). The gel was then transferred to nitrocellulose membrane using the dry transfer system (iBlot 2 Transfer Stacks, nitrocellulose, D323001) with a program consisting of 20 V for 1 minute, 23 V for 4 minutes and 25 V for 2 minutes. After the membrane was blocked with 5% BSA (Solarbio, A8020) in 1X TBST (CST, 9997S) for 1 hour at room temperature, specific antibodies (Ubiquityl-PCNA antibody (CST, 13439) at 1:500 dilution, PCNA antibody (Santa Cruz, sc-56) at 1:1000 dilution, and GAPDH (CST, 5174) at 1:2000 dilution in 1 X TBST containing 1% BSA) were added and incubated at room temperature for 1.5 hours. After washing the Nitrocellulose membranes with 1 X TBST for 3 times, 10 minutes each time at room temperature, fluorescently labeled secondary antibodies (anti-rabbit IgG, Licor, 926-32211; anti-mouse IgG, LI-COR, 926-68070) at 1:5000 dilution in 1 X TBST containing 1% BSA were added and incubated for 1 hour at room temperature in the dark. The membranes were then rinsed with 1 X TBST and immersed in the RO water. Imaging of band intensity was acquired with Li—COR imaging system (Li—COR, Odyssey clx ES).
Percentage of USP1 inhibition (% Vehicle) was calculated by using following equation examining Ub-PCNA upregulation:
And IC50 was calculated using four-parameter logistic fitting program • Y=Bottom+(Top-Bottom)/(1+10 {circumflex over (()}(LogIC50−X)*Hill Slope)) • X=Log of dose or concentration
as §1
On the technique in general: In western blotting, separated proteins are transferred to a membrane and probed.

A word on the GI50: it is the concentration giving 50% growth inhibition. A high value points to lower sensitivity of the cells. By IC50 is commonly meant the midpoint of a concentration-inhibition curve. A higher IC50 goes with a need for much substance. In the experiment on MDA-MB-436 cells (Homo sapiens, 168 h), `CCc1ncnc(C2CC2)c1-c1ncc2ccc(=O)n(Cc3ccc(-c4nc(C(F)(F)F)cn4C)cc3)c2n1` [Compound 52, 2-(4-Cyclopropyl-6-Ethylpyrimidin-5-Yl)-8-({4-[1-Methyl-4-(Trifluoromethyl)Imidazol-2-Yl]Phenyl}Methyl)Pyrido[2,3-d]Pyrimidin-7-One] yielded a GI50 of 100 to 1000 nM. The compound also registered an IC50 with HCC1806 Ub-PCNA (USP1) (Homo sapiens) of 100 to 1000 nM. In turn, `[2H]C([2H])([2H])Oc1ncnc(C2CC2)c1-c1ncc2ccc(=O)n(C([2H])([2H])c3ccc(-c4nc(C(F)(F)F)cn4C([2H])([2H])[2H])cc3)c2n1` [Compound 57, 2-[4-cyclopropyl-6-(2H3)methoxypyrimidin-5-yl]-8-({4-[1-(2H3)methyl-4-(trifluoromethyl)imidazol-2-yl]phenyl}(2H2)methyl)pyrido[2,3-d]pyrimidin-7-one] returned a GI50 in the experiment on MDA-MB-436 cells (Homo sapiens, 168 h) of under 10 nM. This compound returned an IC50 with HCC1806 Ub-PCNA (USP1) (Homo sapiens) of under 10 nM. `COc1ncnc(C2CC2)c1-c1ncc2ccc(=O)n(Cc3ccc(-c4nc(C(F)(F)F)c[nH]4)cc3)c2n1` [Compound 58, 2-(4-Cyclopropyl-6-Methoxypyrimidin-5-Yl)-8-({4-[4-(Trifluoromethyl)-1H-Imidazol-2-Yl]Phenyl}Methyl)Pyrido[2,3-d]Pyrimidin-7-One] had a GI50 with MDA-MB-436 cells (Homo sapiens, 168 h) of 10 to 100 nM. With `COc1ncnc(C2CC2)c1-c1ncc2ccc(=O)n(C(C)c3ccc(-c4nc(C(F)(F)F)cn4C)cc3)c2n1` (stereo not drawn) [Compound 62], the GI50 in the experiment on MDA-MB-436 cells lay in the range of 10 to 100 nM. For the same compound, the half-maximal inhibitory concentration (IC50) with HCC1806 Ub-PCNA (USP1) is 10 to 100 nM. In the experiment on MDA-MB-436 cells, `COc1ncnc(C2CC2)c1-c1ncc2ccc(=O)n(C(C)c3ccc(-c4nc(C(F)(F)F)cn4C)cc3)c2n1` (stereo not drawn) [Compound 63] yielded a GI50 of 10 to 100 nM. In addition, in the experiment on HCC1806 Ub-PCNA (USP1), the IC50 fell in the range of 10 to 100 nM. As for `COc1ncnc(C2CC2)c1-c1ncc2cc(-c3cnn(C)c3)c(=O)n(Cc3ccc(-c4nc(C(F)(F)F)cn4C)cc3)c2n1` [Compound 64], in the experiment on MDA-MB-436 cells (Homo sapiens, 168 h), the GI50 is 10 to 100 nM. In the experiment on HCC1806 Ub-PCNA (USP1) (Homo sapiens), the IC50 lay within 10 to 100 nM. In the experiment with MDA-MB-436 cells (Homo sapiens, 168 h), `COc1ncnc(C2CC2)c1-c1ncc2ccc(=O)n(Cc3ccc(-c4ncc(F)cc4OC(C)C)cc3)c2n1` [Compound 67, 2-(4-cyclopropyl-6-methoxypyrimidin-5-yl)-8-{[4-(5-fluoro-3-isopropoxypyridin-2-yl)phenyl]methyl}pyrido[2,3-d]pyrimidin-7-one] showed a GI50 of 10 to 100 nM. In the experiment with HCC1806 Ub-PCNA (USP1) (Homo sapiens), the IC50 fell in the range of 10 to 100 nM. Consider `COc1ncnc(C2CC2)c1-c1ncc2ccc(=O)n(Cc3ccc(-c4nc(C(F)(F)F)cn4C)cc3F)c2n1` [Compound 71, 2-(4-Cyclopropyl-6-Methoxypyrimidin-5-Yl)-8-({2-Fluoro-4-[1-Methyl-4-(Trifluoromethyl)Imidazol-2-Yl]Phenyl}Methyl)Pyrido[2,3-d]Pyrimidin-7-One], for which the GI50 in the experiment with MDA-MB-436 cells (Homo sapiens, 168 h) fell in the range of 10 to 100 nM. In the experiment with HCC1806 Ub-PCNA (USP1) (Homo sapiens), this compound came in with an IC50 of 10 to 100 nM. Consider `COc1ncnc(C2CC2)c1-c1ncc2ccc(=O)n(Cc3ccc(-c4nc(C(F)(F)F)cn4C)c(F)c3)c2n1` [Compound 72, 2-(4-Cyclopropyl-6-Methoxypyrimidin-5-Yl)-8-({3-Fluoro-4-[1-Methyl-4-(Trifluoromethyl)Imidazol-2-Yl]Phenyl}Methyl)Pyrido[2,3-d]Pyrimidin-7-One], for which the GI50 with MDA-MB-436 cells (Homo sapiens, 168 h) was under 10 nM. The compound further showed an IC50 in the experiment on HCC1806 Ub-PCNA (USP1) (Homo sapiens) of 10 to 100 nM. `COc1ncnc(C2CC2)c1-c1ncc2ccc(=O)n(Cc3ccc(-c4nc(C(F)(F)F)ccc4OC(C)C)cc3)c2n1` [Compound 75, 2-(4-Cyclopropyl-6-Methoxypyrimidin-5-Yl)-8-({4-[3-Isopropoxy-6-(Trifluoromethyl)Pyridin-2-Yl]Phenyl}Methyl)Pyrido[2,3-d]Pyrimidin-7-One] came in with a GI50 in the experiment on MDA-MB-436 cells (Homo sapiens, 168 h) of 10 to 100 nM. The compound further gave an IC50 in the experiment with HCC1806 Ub-PCNA (USP1) (Homo sapiens) of 10 to 100 nM.

The compound `COc1ncnc(C2CC2)c1-c1ncc2cc(C)c(=O)n(Cc3ccc(-c4nc(C(F)(F)F)cn4C)cc3)c2n1` [Compound 78, 2-(4-cyclopropyl-6-methoxypyrimidin-5-yl)-6-methyl-8-({4-[1-methyl-4-(trifluoromethyl)imidazo]-2-yl]phenylmethyl)pyrido[2,3-d]pyrimidin-7-one] gave a GI50 in the experiment with MDA-MB-436 cells of 10 to 100 nM. Further, the IC50 in the experiment on HCC1806 Ub-PCNA (USP1) was in the range of 10 to 100 nM. Consider `COc1ncnc(C2CC2)c1-c1ncc2cc(Cl)c(=O)n(Cc3ccc(-c4nc(C(F)(F)F)cn4C)cc3)c2n1` [Compound 79, 6-Chloro-2-(4-Cyclopropyl-6-Methoxypyrimidin-5-Yl)-8-({4-[1-Methyl-4-(Trifluoromethyl)Imidazol-2-Yl]Phenyl}Methyl)Pyrido[2,3-d]Pyrimidin-7-One], for which, in the experiment on MDA-MB-436 cells (Homo sapiens, 168 h), the 50% growth inhibitory concentration (GI50) fell in the range of 10 to 100 nM. The compound further gave an IC50 in the experiment with HCC1806 Ub-PCNA (USP1) (Homo sapiens) of 10 to 100 nM. `COc1ncnc(C2CC2)c1-c1ncc2ccc(=O)n(Cc3ccc(-c4nc(C(F)(F)F)cn4C)cn3)c2n1` [Compound 88, 2-(4-Cyclopropyl-6-Methoxypyrimidin-5-Yl)-8-({5-[1-Methyl-4-(Trifluoromethyl)Imidazol-2-Yl]Pyridin-2-Yl}Methyl)Pyrido[2,3-d]Pyrimidin-7-One] came in with a GI50 in the experiment on MDA-MB-436 cells (Homo sapiens, 168 h) of over 1000 nM. The IC50 in the experiment with HCC1806 Ub-PCNA (USP1) (Homo sapiens) was in the range of 10 to 100 nM. The compound `COc1ncnc(C2CC2)c1-c1ncc2ncc(=O)n(Cc3ccc(-c4nc(C(F)(F)F)cn4C(C)C)cc3)c2n1` [Compound I-29] returned a GI50 in the experiment on MDA-MB-436 cells (Homo sapiens, 168 h) of under 10 nM. Moreover, in the experiment on HCC1806 Ub-PCNA (USP1) (Homo sapiens), the IC50 was under 10 nM. `COc1ncnc(C2CC2)c1-c1ncc2ccc(=O)n(C(C)c3ccc(-c4nc(C(F)(F)F)cn4C)cc3)c2n1` (stereo not drawn) [Compound I-43, 2-(4-Cyclopropyl-6-Methoxypyrimidin-5-Yl)-8-(1-{4-[1-Methyl-4-(Trifluoromethyl)Imidazol-2-Yl]Phenyl}Ethyl)Pyrido[2,3-d]Pyrimidin-7-One] had a GI50 in the experiment on MDA-MB-436 cells (Homo sapiens, 168 h) of 10 to 100 nM. Also, the half-inhibitory concentration (IC50) with HCC1806 Ub-PCNA (USP1) (Homo sapiens) fell in the range of 10 to 100 nM. For the compound `Cc1cnn(C(C)C)c1-c1ncc2ccc(=O)n(Cc3ccc(-c4nc(C(F)(F)F)cn4C)cc3)c2n1` [Compound I-45, 2-(2-isopropyl-4-methylpyrazol-3-yl)-8-({4-[1-methyl-4-(trifluoromethyl)imidazol-2-yl]phenyl}methyl)pyrido[2,3-d]pyrimidin-7-one], the GI50 with MDA-MB-436 cells (Homo sapiens, 168 h) is 10 to 100 nM. The compound further showed an IC50 with HCC1806 Ub-PCNA (USP1) (Homo sapiens) of 10 to 100 nM. In turn, `COc1ncnc(C2CC2)c1-c1ncc2cc(-c3nnc(C)n3C)c(=O)n(Cc3ccc(-c4nc(C(F)(F)F)cn4C4CC4)cc3)c2n1` [Compound I-149, 8-({4-[1-Cyclopropyl-4-(Trifluoromethyl)Imidazol-2-Yl]Phenyl}Methyl)-2-(4-Cyclopropyl-6-Methoxypyrimidin-5-Yl)-6-(4,5-Dimethyl-1,2,4-Triazol-3-Yl)Pyrido[2,3-d]Pyrimidin-7-One] returned a GI50 with MDA-MB-436 cells (Homo sapiens, 168 h) of 10 to 100 nM. Moreover, in the experiment with HCC1806 Ub-PCNA (USP1) (Homo sapiens), the concentration for half-maximal inhibition (IC50) was in the range of 10 to 100 nM.
